Reference: patent US20070179110A1, “EXPRESSION OF IMMUNOGENIC SUBSTANCES” (Mayo Foundation for Medical Education and Research, priority 1997, published 2007)

Experiments:
Jurkat cells = assay: Anti-CD3ε induced IL-2 secretion of Jurkat cells (IL-2 release assay); assay type: cell-based; conditions: Homo sapiens, 1 μg/ml, not shown
Experimental: (§1) Subsequently the cells were washed, counted and stimulated (10^5/well) in triplicate with plastic-immobilised NIP10-BSA conjugates (iNIP10-BSA) or plastic immobilised anti-CD3E mAb (ianti-CD3) in fresh CM alone or in the presence of the drugs (12). The plates were incubated at 37° C. in 5% CO2. After 20 hours supernatants were harvested and assayed for IL-2 activity using an ELISA kit (Genzyme Diagnostics, Cambridge, Mass.).

chTCR gene expression [1] = assay: Regulation of surface chTCR expression in cloned pLAV12 transfectants (1E5/1F5 and 2E11), FACS; assay type: cell-based, human
Experimental: (§2) The Jurkat T cell line (clone E6-l) was maintained in RPMI 1640 supplemented with 10% foetal calf serum (FCS), 2 mM L-glutamine, 100 U/ml penicillin, 100 μg/ml streptomycin and 25 mM HEPES buffer (all from GIBCO-BRL, Gaithersburg, Md.), referred to as complete medium (CM). To generate stable cell lines Jurkat cells were transfected with linearized plasmid DNA (10 μg) by electroporation, at […] and 960 μF, as described previously (13). Transfectants were selected in CM supplemented with 0.4 mg/ml of hygromycin B (Calbiochem, San Diego, Calif.). Stable cell lines were established after 3-4 weeks and analyzed by FACS for expression of the chTCR. To select a population of chTCR ζ expressing cells, stable Jurkat cells transfected with the linearized pLAV12 or pCEP4.aNIP.TCR ζ derived plasmid fragments were FACS sorted (see below). The resultant populations were cloned twice by limiting dilution and screened for protein expression by flow cytometry.
(§3) Expression of cell surface proteins was performed by standard direct immunofluorescence as described (14) using saturating amounts of FITC-conjugated antibodies. Dead cells were excluded from analysis using a combination of propidium iodide and forward light scatter. Appropriate FITC isotype-matched irrelevant Abs were used in all experiments. The samples were analysed with a FACScan® (Becton Dickinson, Mountain View, Calif.). A minimum of 20,000 cells was analysed for each sample. Subsequent re-analysis of data was performed using the CELLQuest software (version 1.2) (Becton Dickinson). Additionally, cells stained with FITC-conjugated goat antisera to mouse λ light chain were sorted under sterile conditions on a cell sorter (FACScalibur, Becton Dickinson).
The selected population of pLAV12 transfectants (JLAV12S) was then cloned by limiting dilution and two subclones expressing the chTCR at low (2E11) and intermediate (IF5) levels (FIG. 3) were selected for further study.
(§4) A dose-response curve of gene repression was determined using different concentrations of Tet or Dox. After 48 hours of treatment, the cells were harvested and the expression of the chTCR was studied by FACS analysis.
(§5) Stably transfected uncloned (JLAV12S, left hand column) and cloned (1F5, middle column; and 2E11, right hand column) Jurkat cell populations were cultured for 48 hours in the presence of different concentrations (0 ng/ml top row, 0.1 ng/ml second row, 1 ng/ml third row, and 10 ng/ml bottom row) of Tet (broken line) or Dox (solid line) and the surface expression of scFv-TCR ζ molecules was examined. Negative controls (FITC-conjugated goat antisera to mouse IgG) are overlaid (filled curve). The fluorescence channel number is plotted along the x axis, and the y axis represents the relative cell number.

JN3S cells = assay: IL-2 production of JN3S cells stimulated with iNIP10-BSA; assay type: cell-based, human; conditions: doxycycline at a concentration of less than 1 μg/ml
Experimental: as §1
The inventors next determined whether tetracycline-mediated suppression of the chTCR could induce a reversible state of antigen unresponsiveness in the transfected Jurkat cells. JLAV12S and JN3S cells were preincubated for 48 hours in increasing concentrations of Dox and Tet and then stimulated with immobilized NIP-BSA, following which their IL-2 production was measured.
FIGS. 5A and 5B are bar charts showing IL-2 production (in pg/ml) by transfected JLAV12S (5A) or JN3S (5B) cells stimulated with iNIP10-BSA in the absence or presence of Tet or Dox. Cells were preincubated for a 48 hours period in the absence or presence of the drugs (at the indicated concentration in ng/ml), washed and stimulated (10^5/well) with plastic immobilised NIP10-BSA conjugates (50 μg/ml) in fresh CM alone (solid bar) or in the presence of Tet (shaded bars) or Dox (open bars) at the indicated concentrations. One of two similar experiments is shown.

JLAV12S and JN3S cells = conditions: 1 μg/ml, 48 hours; data not shown
chTCR gene expression [2] = assay: Regulation of surface chTCR expression by tetracyclines in JLAV12S (pLAV12-transfected Jurkat) cells, FACS; assay type: cell-based, human; conditions: for surface chTCRs down-regulated: 1 μg/ml; for surface chTCRs down-regulated / concentration for maximal repression: 48 hours
Experimental: as §2, §3
To study the time-course of inactivation of gene expression, JLAV12S cells were analysed at different times after addition of the antibiotics at 1 μg/ml (FIG. 2B).
as §4, §5

Compound	inhibition at 1 µg/mL (Jurkat cells)	level of chTCR as % of its maximal expression (chTCR gene expression [1]; 1E5 clone)	level of chTCR as % of its maximal expression (chTCR gene expression [1]; 2E11 clone)	concentration at which expression of chTCRs was maximally repressed (chTCR gene expression [1]; clonal populations 1E5 and 2E11, 48 hours)	effect on IL-2 production upon stimulation with iNIP10-BSA conjugates (JN3S cells)	changes in cell viability (JLAV12S and JN3S cells)	surface chTCRs down-regulated (chTCR gene expression [2]; JLAV12S cells)	concentration for maximal repression (chTCR gene expression [2]; JLAV12S cells)	concentration for maximal repression (chTCR gene expression [2]; all the analysed cell lines)	concentration of maximum repression (chTCR gene expression [2]; in our system)
C[C@H]1c2cccc(O)c2C(=O)C2=C(O)[C@]3(O)C(=O)C(C(N)=O)=C(O)[C@@H](N(C)C)[C@@H]3[C@@H](O)[C@@H]21 [doxycycline]	25%	about 10%	~20%	100 pg/mL	no inhibitory effect	No changes	90%	greater than or equal to 1 ng/ml		
CN(C)[C@@H]1C(O)=C(C(N)=O)C(=O)[C@@]2(O)C(O)=C3C(=O)c4c(O)cccc4[C@@](C)(O)[C@H]3C[C@@H]12 [tetracycline]		about 10%	~20%		no inhibitory effect		90%		greater than or equal to 10 ng/ml	10 ng/mL
